For this assay, the system named is L1210 leukemia ip in BDF1 mice, survival T/C. In words: NCI In Vivo Anticancer Drug Screen. Data for tumor model L1210 Leukemia (intraperitoneal) in B6D2F1 (BDF1) mice. The settings on record: endpoint: mean survival time, higher = longer survival. An outline of the steps:
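Read-out is survival time, reported as the treated-group measurement over the vehicle-control measurement.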

[1] abbreviates: dose: 100.0 mg/kg/injection, schedule: Q04DX003 (ip), vehicle: Klucel (hydroxypropylcellulose) (HPC).
Where [2] appears, read: dose: 200.0 mg/kg/injection, schedule: Q04DX003 (ip), vehicle: Klucel (hydroxypropylcellulose) (HPC).
Setting [3] is: dose: 400.0 mg/kg/injection, schedule: Q04DX003 (ip), vehicle: Klucel (hydroxypropylcellulose) (HPC).
Where [4] appears, read: dose: 100.0 mg/kg/injection, schedule: Q01DX001 (ip), vehicle: carboxymethylcellulose (CMC).
[5] abbreviates: dose: 200.0 mg/kg/injection, schedule: Q01DX001 (ip), vehicle: carboxymethylcellulose (CMC).
Setting [6] is: dose: 400.0 mg/kg/injection, schedule: Q01DX001 (ip), vehicle: carboxymethylcellulose (CMC).
The mark [7] stands for this setting: dose: 100.0 mg/kg/injection, schedule: Q01DX001 (ip), vehicle: other.
[8] abbreviates: dose: 200.0 mg/kg/injection, schedule: Q01DX001 (ip), vehicle: other.

The structures appear in SMILES notation. Where “and” joins values, the source holds several entries; their conditions need not be identical. Identical values can stand only once. Toxic doses and inconclusive results are not listed.

In the case of `CN=C(NC)c1ccc(NC(=O)c2ccc(C(=O)Nc3ccc(C(=NC)NC)c(C)c3)cc2)cc1C`, the T/C reads like this: (dose: 4.4 mg/kg/injection, schedule: Q01DX Z (ip), vehicle: carboxymethylcellulose (CMC)) 98 % of control; (dose: 6.6 mg/kg/injection, schedule: Q01DX Z (ip), vehicle: carboxymethylcellulose (CMC)) 102 % of control; (dose: 10.0 mg/kg/injection, schedule: Q01DX Z (ip), vehicle: carboxymethylcellulose (CMC)) 100 % of control; (dose: 15.0 mg/kg/injection, schedule: Q01DX Z (ip), vehicle: carboxymethylcellulose (CMC)) 107 % of control and 108 % of control and 112 % of control; (dose: 22.5 mg/kg/injection, schedule: Q01DX Z (ip), vehicle: carboxymethylcellulose (CMC)) 111 % of control; (dose: 30.0 mg/kg/injection, schedule: Q01DX Z (ip), vehicle: carboxymethylcellulose (CMC)) 96 % of control. Where the note is “dose: 35.0 mg/kg/injection, schedule: Q01DX Z (ip), vehicle: carboxymethylcellulose (CMC)”, the T/C is 100 % of control.
For `Clc1ccc2scc3c4ccccc4nc-3c2c1`, the T/C (dose: 100.0 mg/kg/injection, schedule: Q04DX003 (ip), vehicle: acetone) is 102 % of control.
In the case of `N=C1c2ccccc2-c2nc3ccccc3c(=O)n21`, the T/C reads like this: (dose: 100.0 mg/kg/injection, schedule: Q04DX002 (ip), vehicle: saline) 86 % of control; (dose: 200.0 mg/kg/injection, schedule: Q04DX002 (ip), vehicle: saline) 93 % of control; (dose: 400.0 mg/kg/injection, schedule: Q04DX002 (ip), vehicle: saline) 89 % of control.
Regarding `CC1(C)N=C(N)N=C(N)N1c1cccc(CCCCOc2ccccc2)c1`, the T/C (dose: 6.25 mg/kg/injection, schedule: Q04DX003 (ip), vehicle: saline with Tween-80) was 101 % of control; the T/C (dose: 12.5 mg/kg/injection, schedule: Q04DX003 (ip), vehicle: saline with Tween-80) is 106 % of control; the T/C (dose: 25.0 mg/kg/injection, schedule: Q04DX003 (ip), vehicle: saline with Tween-80) was 95 % of control.
For `CC/C=C/N1CCCCC1`, the T/C is, setting by setting: (dose: 25.0 mg/kg/injection, schedule: Q01DX009 (ip), vehicle: saline with Tween-80) 97 % of control; (dose: 50.0 mg/kg/injection, schedule: Q01DX009 (ip), vehicle: saline with Tween-80) 94 % of control; (dose: 100.0 mg/kg/injection, schedule: Q01DX009 (ip), vehicle: saline with Tween-80) 113 % of control and 91 % of control.
`CN=NCc1ccccc1`: the T/C runs as follows: (dose: 90.0 mg/kg/injection, schedule: Q04DX002 (ip), vehicle: saline with Tween-80) 106 % of control; (dose: 100.0 mg/kg/injection, schedule: Q04DX002 (ip), vehicle: saline with Tween-80) 108 % of control and 122 % of control; (dose: 133.0 mg/kg/injection, schedule: Q04DX002 (ip), vehicle: saline with Tween-80) 120 % of control; (dose: 200.0 mg/kg/injection, schedule: Q04DX002 (ip), vehicle: saline with Tween-80) 106 % of control and 111 % of control; (dose: 300.0 mg/kg/injection, schedule: Q04DX002 (ip), vehicle: saline with Tween-80) 117 % of control.
As for `Cc1cc(=O)[nH]c2ccc(Cc3ccc(Cl)cc3)cc12`, the T/C (dose: 100.0 mg/kg/injection, schedule: Q01DX001 (ip), vehicle: saline) was 97 % of control; the T/C (dose: 200.0 mg/kg/injection, schedule: Q01DX001 (ip), vehicle: saline) is 98 % of control; the T/C (dose: 400.0 mg/kg/injection, schedule: Q01DX001 (ip), vehicle: saline) is 95 % of control.
For `O=C1OC2(CCCCC2)c2ccccc21`, the T/C reads like this: under setting [1], 105 % of control; under setting [2], 95 % of control; under setting [3], 105 % of control.
For `O=C1c2ccsc2C(=O)c2sccc21`, the T/C (dose: 100.0 mg/kg/injection, schedule: Q01DX001 (ip), vehicle: saline with Tween-80) was 103 % of control and the T/C (dose: 200.0 mg/kg/injection, schedule: Q01DX001 (ip), vehicle: saline with Tween-80) is 92 % of control.
For the molecule `CCOC(=O)CCC(NC(=O)N(CCCl)CCCl)C(=O)OCC` (stereo not drawn), the T/C (dose: 250.0 mg/kg/injection, schedule: Q01DX Z (ip), vehicle: water) is 90 % of control and the T/C (dose: 400.0 mg/kg/injection, schedule: Q01DX009 (ip), vehicle: saline) is 183 % of control.
Consider `CCCCCCC(C)C1C(=O)NC(=S)NC1=O` (stereo not drawn), for which the T/C reads like this: (dose: 75.0 mg/kg/injection, schedule: Q01DX001 (ip), vehicle: carboxymethylcellulose (CMC)) 93 % of control; (dose: 150.0 mg/kg/injection, schedule: Q01DX001 (ip), vehicle: carboxymethylcellulose (CMC)) 91 % of control; (dose: 300.0 mg/kg/injection, schedule: Q01DX001 (ip), vehicle: carboxymethylcellulose (CMC)) 94 % of control.
Consider `CCOC(=O)c1cc(Cl)c2c(ccc3ccccc32)n1`, for which the T/C was 115 % of control under setting [4]; 92 % of control (dose: 100.0 mg/kg/injection, schedule: Q01DX009 (ip), vehicle: carboxymethylcellulose (CMC)); 100 % of control and 103 % of control (dose: 100.0 mg/kg/injection, schedule: Q04DX002 (ip), vehicle: carboxymethylcellulose (CMC)); 105 % of control (dose: 100.0 mg/kg/injection, schedule: Q04DX003 (ip), vehicle: carboxymethylcellulose (CMC)); 103 % of control under setting [5]; 92 % of control (dose: 200.0 mg/kg/injection, schedule: Q01DX009 (ip), vehicle: carboxymethylcellulose (CMC)). In addition, the T/C (dose: 200.0 mg/kg/injection, schedule: Q04DX002 (ip), vehicle: carboxymethylcellulose (CMC)) is 93 % of control and 97 % of control; the T/C (dose: 200.0 mg/kg/injection, schedule: Q04DX003 (ip), vehicle: carboxymethylcellulose (CMC)) is 115 % of control; the T/C under setting [6] is 97 % of control; the T/C (dose: 400.0 mg/kg/injection, schedule: Q01DX009 (ip), vehicle: carboxymethylcellulose (CMC)) is 98 % of control; the T/C (dose: 400.0 mg/kg/injection, schedule: Q04DX002 (ip), vehicle: carboxymethylcellulose (CMC)) is 93 % of control and 95 % of control; the T/C (dose: 400.0 mg/kg/injection, schedule: Q04DX003 (ip), vehicle: carboxymethylcellulose (CMC)) was 107 % of control.
With `N=c1c(C(=O)O)cccn1O`, the T/C is 105 % of control (dose: 87.5 mg/kg/injection, schedule: Q01DX009 (ip), vehicle: Klucel (hydroxypropylcellulose) (HPC)); 94 % of control (dose: 175.0 mg/kg/injection, schedule: Q01DX009 (ip), vehicle: Klucel (hydroxypropylcellulose) (HPC)); 95 % of control (dose: 350.0 mg/kg/injection, schedule: Q01DX009 (ip), vehicle: Klucel (hydroxypropylcellulose) (HPC)).
`O=C(O)c1cccc(C2CC2)c1`: the T/C was 95 % of control under setting [7]; 97 % of control (dose: 100.0 mg/kg/injection, schedule: Q04DX003 (ip), vehicle: other); 97 % of control under setting [8]; 97 % of control (dose: 200.0 mg/kg/injection, schedule: Q04DX003 (ip), vehicle: other); 98 % of control (dose: 400.0 mg/kg/injection, schedule: Q01DX001 (ip), vehicle: other); 97 % of control (dose: 400.0 mg/kg/injection, schedule: Q04DX003 (ip), vehicle: other).
For `CC/C(=N\[N+](C)(C)C)c1ccccc1`, the T/C was 100 % of control (dose: 18.8 mg/kg/injection, schedule: Q04DX003 (ip), vehicle: saline); 97 % of control (dose: 37.5 mg/kg/injection, schedule: Q04DX003 (ip), vehicle: saline); 100 % of control (dose: 75.0 mg/kg/injection, schedule: Q01DX001 (ip), vehicle: saline); 100 % of control (dose: 75.0 mg/kg/injection, schedule: Q04DX003 (ip), vehicle: saline).
Consider `N#CC(C#N)=Cc1ccc(Cl)c(Cl)c1`, for which the T/C is 102 % of control (dose: 50.0 mg/kg/injection, schedule: Q01DX001 (ip), vehicle: other); 107 % of control under setting [7]; 92 % of control (dose: 100.0 mg/kg/injection, schedule: Q01DX009 (ip), vehicle: Klucel (hydroxypropylcellulose) (HPC)); 96 % of control under setting [1]; 107 % of control under setting [8]; 93 % of control (dose: 200.0 mg/kg/injection, schedule: Q01DX009 (ip), vehicle: Klucel (hydroxypropylcellulose) (HPC)). The T/C was 102 % of control under setting [2]; 86 % of control (dose: 400.0 mg/kg/injection, schedule: Q01DX009 (ip), vehicle: Klucel (hydroxypropylcellulose) (HPC)); 95 % of control under setting [3].
In the case of `Cn1cc([N+](=O)[O-])c(=O)n(C)c1=O`, the T/C runs as follows: (dose: 50.0 mg/kg/injection, schedule: Q01DX001 (ip), vehicle: carboxymethylcellulose (CMC)) 93 % of control; under setting [4], 98 % of control; under setting [5], 102 % of control; under setting [6], 104 % of control.

These data come from PubChem BioAssay AID248 (DTP/NCI, 2004).
